# Assay results reported in US20260091050A1, “ADVANTAGEOUS ANTI-HCV COMBINATION THERAPY” (Atea Pharmaceuticals, Inc., priority 2021, published 2026).
# What was measured:
# [1] = tested on: replicons containing the NS5B sequences from HCV patient plasma samples (GT1a, 1b, 2a, 2b, 3a-1, 3a-2, 4a and 4d); assay: Replicons containing NS5B sequences from HCV patient plasma samples (clinical isolates); type: cell-based
# [2] = Head-to-head comparison of Compound 1 and Compound 1-A in dogs: plasma levels; type: in vivo; details: dog plasma, normalized to a dose of 25 mg/kg; 25 mg/kg
# Procedure: A head-to-head comparison of dogs dosed with Compound 1 and Compound 1-A was conducted.
# [3] = Plasma profiles of Compound 1 and metabolite 1-7 after single oral doses of Compound 1-A, cynomolgus monkeys; type: in vivo; details: monkey
# [4] = Three-part study (Parts C, D, E) of Compound 1-A: overall safety/tolerability and pharmacokinetics; type: in vivo, human; details: for AUC(0-inf): human, in vivo
# Procedure: (§1) Part C was a randomized, double-blind, placebo-controlled MAD study divided into three cohorts. […] The dose escalation only proceeded following satisfactory review of the data.
# HCV-infected patients were treatment-naïve with HCV RNA ≥5 log 10 IU/mL. […] Plasma drug levels were measured using LC-MS/MS.
# [5] = Solubility in biorelevant test medias (water, SGF, FaSSIF, FeSSIF); details: for Appearance: solubility test; for Descriptive term: solubility
# GT1 HCV [6] = assay: Single ascending dose study of Compound 1-A in GT1-HCV infected patients (Part B); type: in vivo, human; details: single oral dose of Compound 1-A, plasma
# Procedure: Subjects in Part B received a single dose of Compound 1-A in the fasting state. Patients were confined to the clinic from Day −1 to Day 6.
# Part B was initiated after the safety (through Day 5) and plasma pharmacokinetic (through 24 h) data review from Cohort 3a in Part A. Available safety data (through Day 5) and pharmacokinetic data (through 24 h) was reviewed for the first cohort in Part B (Cohort 1b) before enrolling subsequent Part B cohorts. Subsequent Part B cohorts were only dosed following review of available safety and pharmacokinetic data from the respective doses in Part A as well as available safety (through Day 5) from the prior Part B cohorts.
# Patients infected with HCV were treatment-naïve, non-cirrhotic GT1-infected subjects with a viral load of ≥5 log10 IU/mL.
# Baseline was defined as the mean of Day −1 and Day 1 (pre-dose). […] The mean maximum HCV RNA reduction 24 hours post-dose following a single 300 mg dose was 1.7 log10 IU/mL and this compares to a −2 log 10 IU/mL reduction after 1 day of 400 mg of sofosbuvir monotherapy in GT1a HCV-infected subjects. The mean maximum HCV RNA reduction 24 hours post-dose following a single 100 mg dose was 0.8 log10 IU/mL. The mean 10 maximum HCV RNA reduction was 2.2 log10 IU/mL following a single 400 mg dose.
# [7] = tested on: replicons containing the NS5B sequences from HCV laboratory reference strains (GT1a, 1b, 2a, 3a, 4a and 5a); assay: Replicons containing NS5B sequences from laboratory reference strains; type: cell-based; details: laboratory strains of HCV Genotypes 1-5
# [8] = Plasma profiles of Compound 1 and metabolite 1-7 after single oral dose of Compound 1-A, Sprague-Dawley rats; type: in vivo; details: rat, single oral dose of Compound 1-A 500 mg/kg (0.5% CMC, 0.5% Tween 80 in water)
# GT1 HCV [9] = assay: Multiple dose study, 7 days QD, non-cirrhotic GT1 HCV-infected patients (Part C); type: in vivo, human; details: Part C; for Mean ± SD HCV RNA change from baseline to 24 h / Mean ± SD HCV RNA maximum change from baseline: N = 6
# Procedure: (§2) Doses were administered as the Compound 1-A salt base. The free base Compound 1 equivalent is often given in parenthesis.
# as §1
# (§3) HCV-infected patients were treatment-naïve with HCV RNA ≥5 log 10 IU/mL. HCV RNA was quantified using COBAS® AmpliPrep TaqMAN® v2.0 with LLQ of 15 IU/mL. Plasma drug levels were measured using LC-MS/MS. […] Mean ages of enrolled subjects were 44, 39, and 56 years in the non-cirrhotic GT1b 600 mg dose cohort, non-cirrhotic GT3 cohort, and the cirrhotic cohort, respectively.
# HCV NS5A = details: wide range of HCV genotypes and common clinical mutants; cited from earlier work
# GT3 HCV = assay: 600 mg QD for 7 days in non-cirrhotic GT3 HCV-infected patients (Part D); type: in vivo, human; details: Part D, 600 mg/day, N = 6
# Procedure: as §2, §1, §3
# GT1, GT2, or GT3 HCV = assay: 600 mg QD for 7 days in Child-Pugh A cirrhotic patients with GT1, GT2 or GT3 HCV (Part E); type: in vivo, human; details: Part E, 600 mg/day
# Procedure: Doses were administered as the Compound 1-A salt base. The free base Compound 1 equivalent is often given in parenthesis. […]
# as §3
# [10] = single oral dose of Compound 1-A 30 mg/kg (powder in capsules)
# [11] = single oral dose of Compound 1-A 100 mg/kg (powder in capsules)
# [12] = single oral dose of Compound 1-A 300 mg/kg (powder in capsules)
smiles,measurement,setting,value
"CNc1nc(N)nc2c1ncn2[C@@H]1O[C@H](CO[P@@](=O)(N[C@@H](C)C(=O)OC(C)C)Oc2ccccc2)[C@@H](O)[C@@]1(C)F [Compound 1, isopropyl((S)-(((2R,3R,4R,5R)-5-(2-amino-6-(methylamino)-9H-purin-9-yl)-4-fluoro-3-hydroxy-4-methyltetrahydrofuran-2-yl)methoxy)(phenoxy)phosphoryl)-L-alaninate]",EC95,[1]; HCV GT1,approximately 21.7 ng/mL equivalents of metabolite 1-7
same,EC95,[1]; HCV GT2,~11.6 ng/mL equivalents of metabolite 1-7
same,EC95,[1]; HCV GT3,~17.5 ng/mL equivalents of metabolite 1-7
same,"EC95 values, times lower than sofosbuvir",[1]; clinical isolates of all HCV genotypes tested,7-33 times
same,EC95,"[1]; clinical isolates, all tested genotypes",< 80 nM
same,Mean Dose-normalized AUC(0-4 hr) for Compound 1,[2],0.2 µM·h
same,AUC0-last,[3]; [10],0.176 µg·h/mL
same,Cmax,[3]; [10],0.0635 µg/mL
same,Tmax,[3]; [10],30 to 120 min
same,AUC0-last,[3]; [11],1.1 µg·h/mL
same,Cmax,[3]; [11],0.783 µg/mL
same,Tmax,[3]; [11],60 to 120 min
same,AUC0-last,[3]; [12],1.6 µg·h/mL
same,Cmax,[3]; [12],0.501 µg/mL
same,estimated fraction absorbed,[4]; based on urine recovery,~50%
same,AUC(0-inf),"[4]; 150 mg/d, AUC Day 1 (AUCinf for Compound 1), Part C, 150 mg/d (n=6), Day 1",0.492 ± 0.141 µg·h/mL
same,AUC(0-inf),"[4]; 150 mg/d, AUC SS (AUCinf for Compound 1), Part C, 150 mg/d (n=6), steady state",0.475 ± 0.301 µg·h/mL
same,AUC(0-inf),"[4]; 300 mg/d, AUC Day 1 (AUCinf for Compound 1), Part C, 300 mg/d (n=6), Day 1",1.95 ± 1.12 µg·h/mL
same,AUC(0-inf),"[4]; 300 mg/d, AUC SS (AUCinf for Compound 1), Part C, 300 mg/d (n=6), steady state",1.51 ± 0.976 µg·h/mL
same,AUC(0-inf),"[4]; 600 mg/d, AUC Day 1 (AUCinf for Compound 1), Part C, 600 mg/d (n=6), Day 1",3.33 ± 1.5 µg·h/mL
same,AUC(0-inf),"[4]; 600 mg/d, AUC Day 1 (AUCinf for Compound 1), Part D, 600 mg/d (n=6), Day 1",3.33 ± 1.24 µg·h/mL
same,AUC(0-inf),"[4]; 600 mg/d, AUC Day 1 (AUCinf for Compound 1), Part E, 600 mg/d (n=6), Day 1",3.32 ± 1.47 µg·h/mL
same,AUC(0-inf),"[4]; 600 mg/d, AUC SS (AUCinf for Compound 1), Part C, 600 mg/d (n=6), steady state",4.04 ± 2.09 µg·h/mL
same,AUC(0-inf),"[4]; 600 mg/d, AUC SS (AUCinf for Compound 1), Part D, 600 mg/d (n=6), steady state",3.75 ± 2.27 µg·h/mL
same,AUC(0-inf),"[4]; 600 mg/d, AUC SS (AUCinf for Compound 1), Part E, 600 mg/d (n=6), steady state",3.53 ± 1.6 µg·h/mL
same,Appearance,[5]; FaSSIF,Turbid
same,Appearance,[5]; FeSSIF,Turbid
same,Appearance,[5]; SGF,Clear Solution
same,Appearance,[5]; Water,Clear Solution
same,Descriptive term,[5]; FaSSIF,Slightly Soluble
same,Descriptive term,[5]; FeSSIF,Slightly Soluble
same,Descriptive term,[5]; SGF,Sparingly
same,Descriptive term,[5]; Water,Slightly Soluble
same,time within which the parent is metabolized,GT1 HCV [6],≤ 8 h
same,"EC50 values, times lower than (more potent than) sofosbuvir",[7],6-11 times
same,AUC0-last,[8],0.0782 µg·h/mL
same,Cmax,[8],0.0608 µg/mL
same,Tmax,[8],15 min
same,half-life,GT1 HCV [9]; daily dosing for 7 days,short half-life
"COC(=O)N[C@H](C(=O)N1CCC[C@H]1c1ncc(-c2cc(F)c3c(c2)O[C@@H](c2cnc(C4CC4)s2)n2c-3cc3cc(-c4cnc([C@@H]5CCCN5C(=O)[C@@H](NC(=O)OC)C(C)C)[nH]4)ccc32)[nH]1)C(C)C [Compound 2, dimethyl N,N′-([(6S)-6-(2-Cyclopropyl-1,3-thiazol-5-yl)-1-fluoro-6H-indolo[1,2-c][1,3]benzoxazine-3,10-diyl]bis{1H-imidazole-5,2-diyl-(2S)-pyrrolidine-2,1-diyl[(2S)-3-methyl-1-oxobutane-1,2-diyl]})dicarbamate]",affinity for HCV NS5A,HCV NS5A,sub- to low-picomolar
same,Mean ± SD HCV RNA change from baseline to 24 h,GT3 HCV,2.3 ± 0.3 log10 IU/mL
same,Mean ± SD HCV RNA maximum change from baseline,GT3 HCV,4.5 ± 0.3 log10 IU/mL
same,Individual HCV RNA maximum change from baseline,"GT1, GT2, or GT3 HCV; GT1b individual subjects, listed as Compd 2","GT1b: 4.0, log10 IU/mL"
same,Individual HCV RNA maximum change from baseline,"GT1, GT2, or GT3 HCV; GT2 individual subject",GT2: 4.8 log10 IU/mL
same,Mean ± SD HCV RNA change from baseline to 24 h,"GT1, GT2, or GT3 HCV; N = 6",2.4 ± 0.2 log10 IU/mL
same,Mean ± SD HCV RNA maximum change from baseline,"GT1, GT2, or GT3 HCV; N = 6",4.6 ± 0.5 log10 IU/mL
same,Mean ± SD HCV RNA change from baseline to 24 h,GT1 HCV [9]; 150 mg/day,1.2 ± 0.3 log10 IU/mL
same,Mean ± SD HCV RNA maximum change from baseline,GT1 HCV [9]; 150 mg/day,2.6 ± 1.1 log10 IU/mL
same,Mean ± SD HCV RNA change from baseline to 24 h,GT1 HCV [9]; 300 mg/day,1.9 ± 0.2 log10 IU/mL
same,Mean ± SD HCV RNA maximum change from baseline,GT1 HCV [9]; 300 mg/day,4.0 ± 0.4 log10 IU/mL
same,Mean ± SD HCV RNA change from baseline to 24 h,GT1 HCV [9]; 600 mg/day,2.1 ± 0.2 log10 IU/mL
same,Mean ± SD HCV RNA maximum change from baseline,GT1 HCV [9]; 600 mg/day,4.4 ± 0.7 log10 IU/mL
